For twelve compounds, MTL, MIC and Selectivity index results are on record in ChEMBL document CHEMBL1125955, “Synthesis of new disoxaril analogues with potent and selective anti-human rhinovirus 14 activity” (1991).

≈ marks a conversion by molar mass, not a printed value. Some results are limits rather than exact numbers.

Assay [1] concerns Vero. Put plainly: Maximum testable level was evaluated in Vero cells that causes no apparent effects on cell monolayers. It counts as functional, Chlorocebus sabaeus.
For assay [2], the system named is Vero. Put plainly: Minimum inhibitory concentration (antiviral activity) was screened in Vero cells against herpes simplex virus type 1 (HSV-1). The assay is classed as functional. The note with it: Chlorocebus sabaeus.
In assay [3] the test system is Vero. Put plainly: Minimum inhibitory concentration (antiviral activity) was screened in Vero cells against polio type 1 (Sabin strain, Sb-1). It counts as functional. The note with it: Chlorocebus sabaeus.
For assay [4], the system named is HeLa. As to the kind of experiment: Maximum testable level (antiviral activity) was evaluated in HeLa cells against human rhino virus. The assay is classed as functional.
Assay [5] deals with Vero. As to the kind of experiment: Minimum inhibitory concentration (antiviral activity) was screened in Vero cells against Coxsackie B1 (Coxs). It counts as functional. The note with it: Chlorocebus sabaeus.
Assay [6] deals with HeLa. As to the kind of experiment: Minimum inhibitory concentration (antiviral activity) was evaluated n HeLa cells against human rhino virus. The assay is classed as functional.
Assay [7] in a line: Selectivity index was the ratio of maximum testable level to that of minimum inhibitory concentration in human rhino virus. It counts as functional.
For assay [8], the system named is Vero. As to the kind of experiment: Minimum inhibitory concentration (antiviral activity) was screened in Vero cells against Vesicular Stomatitis virus (VSV). The assay is classed as functional. As to conditions: Chlorocebus sabaeus.
Assay [9] relates to Vero. As to the kind of experiment: Minimum inhibitory concentration (antiviral activity) was screened in Vero cells against vaccinia virus (VV). It counts as functional. As to conditions: Chlorocebus sabaeus.
Assay [10] in a line: Selectivity index was determined as ratio of maximum testable level to that of minimum inhibitory concentration. The assay is classed as functional.

Take `Cn1cc(C(=O)CCCCOc2ccc(C(=O)O)cc2)cc1C=O`: the MTL is 380 µM in [1] and greater than 610 µM in assay [4]. In addition, the MIC in assay [2] was greater than 380 µM; in [3], 380 µM (≈ 125 µg/mL); in [5] it was greater than 380 µM; in assay [6], greater than 50 µM.

As for `O=C(O)c1ccc(OCCCCC(=O)c2ccc(Cl)s2)cc1`, the MTL in assay [1] was greater than 170 µM; in assay [4], greater than 590 µM. The MIC in [2] was greater than 170 µM; in assay [3], 30 µM (≈ 10.2 µg/mL); in [5], greater than 170 µM; in assay [6], greater than 50 µM.

For `CCOC(=O)c1ccc(OCCCCC(=O)c2ccc(Cl)s2)cc1`, the MTL in assay [1] is greater than 190 µM; in assay [4] it was greater than 545 µM. In addition, the MIC was greater than 190 µM in assay [2], 80 µM (≈ 29.3 µg/mL) in assay [3], greater than 190 µM in [5] and 0.4 µM (≈ 0.147 µg/mL) in assay [6]. Besides, in assay [7], the Selectivity index was greater than 1362.

`Cc1cc(CCCCCCCOc2ccc(C3=NCCO3)cc2)on1` [DISOXARIL] showed an MTL in [4] greater than 18 µM. In assay [6], this compound yielded an MIC of 0.4 µM (≈ 0.137 µg/mL). The Selectivity index in assay [7] turned out to be 45.

On to `CCOC(=O)c1ccc(OCCCCC(=O)c2ccc(C)o2)cc1`, for which the figures for the MTL in assay [1] and in assay [4] were greater than 120 µM and 65 µM, respectively. The MIC was 75 µM (≈ 24.8 µg/mL) in [2]; 15 µM (≈ 4.96 µg/mL) in assay [3]; 60 µM (≈ 19.8 µg/mL) in assay [5]; greater than 120 µM in assay [8]; 2.4 µM (≈ 0.793 µg/mL) in [6]; 30 µM (≈ 9.91 µg/mL) in assay [9].

Consider `O=C(CCCCOc1ccc(C2=NCCO2)cc1)c1ccc[nH]1`, for which the MTL is greater than 175 µM in assay [1] and greater than 640 µM in assay [4]. Moreover, the MIC was greater than 175 µM in assay [2], 60 µM (≈ 18.7 µg/mL) in [3], greater than 175 µM in assay [5] and 7.5 µM (≈ 2.34 µg/mL) in [6].

As to `O=C(O)c1ccc(OCCCCCc2ccc(Cl)s2)cc1`, the figures for the MTL in assay [1] and in assay [4] were 60 µM and 20 µM, respectively. The MIC was greater than 60 µM in assay [2], 20 µM (≈ 6.5 µg/mL) in assay [3], greater than 60 µM in assay [5] and greater than 20 µM in assay [6].

As to `CCOC(=O)c1ccc(OCCCCC(=O)c2cc(C=O)n(C)c2)cc1`, the MTL is 55 µM in assay [1] and greater than 20 µM in assay [4]. Also, the MIC in assay [2] is greater than 55 µM; in assay [3], 5 µM (≈ 1.79 µg/mL); in [6], 1.4 µM (≈ 0.5 µg/mL).

Consider `Cn1cc(C(=O)CCCCOc2ccc(C3=NCCO3)cc2)cc1C=O`, for which the MTL in assay [1] is greater than 280 µM; in assay [4], greater than 565 µM. Moreover, the MIC in [2] is greater than 280 µM; in assay [5] it was greater than 280 µM; in assay [6], 20 µM (≈ 7.09 µg/mL).

For the compound `Cn1cccc1C(=O)CCCCOc1ccc(C2=NCCO2)cc1`, the MTL is greater than 300 µM in assay [1] and greater than 610 µM in assay [4]. In addition, the MIC is greater than 300 µM in assay [2], 300 µM (≈ 97.9 µg/mL) in assay [3], greater than 300 µM in assay [5] and 1.5 µM (≈ 0.49 µg/mL) in [6]. In addition, the Selectivity index in assay [10] was greater than 406.

With `Clc1ccc(CCCCCOc2ccc(C3=NCCO3)cc2)s1`, the MTL in [1] was 30 µM; in assay [4], greater than 60 µM. Moreover, the MIC in [2] is greater than 30 µM; in [3], 25 µM (≈ 8.75 µg/mL); in [5] it was greater than 30 µM; in [6], 2.8 µM (≈ 0.98 µg/mL).

Regarding `O=C(CCCCOc1ccc(C2=NCCO2)cc1)c1ccc(Cl)s1`, the MTL in assay [1] is greater than 275 µM; in assay [4], greater than 550 µM. Besides, the MIC in [2] was greater than 275 µM; in assay [3] it was 200 µM (≈ 72.8 µg/mL); in assay [5], greater than 275 µM; in assay [6] it was 0.1 µM (≈ 0.0364 µg/mL). The Selectivity index in assay [10] is greater than 5500.
